SMILES strings stand for the structures. The source made the active and inactive calls. The calls are words filed in the database; no cut-off is given here. A value given as a limit tells only on which side of the number the result lay.

In assay [1] the target is Cyclin-dependent kinase 2/cyclin A (Homo sapiens) (UniProt P24941+P20248+P78396). Description: Inhibition of CDK2/cyclin A at 10 uM by IMAP assay. In kind it is protein-complex assay.
The next assay relates to HL-60. Description: Antiproliferative activity against human HL60 cells after 5 days by MTT assay. In kind it is functional, cell-based. The settings on record: HL-60, 120 h.
The next assay has as its system Huh-7. Kind of assay: Antiproliferative activity against human HuH7 cells after 72 hrs by MTT assay. The assay is classed as functional, cell-based. The settings on record: Huh-7, 72 h. A general note: Tetrazolium dyes change colour on reduction, which living cells bring about.
Assay [2] in a line: Antiproliferative activity against human IMR90 cells after 72 hrs by MTT assay. The assay is classed as cell-based. The settings on record: IMR-90, 72 h.
Another assay relates to K562. Kind of assay: cells. The settings on record: Homo sapiens, K562, 72 h.
Another assay concerns HCT-116. Kind of assay: cells. The settings on record: Homo sapiens, HCT-116, 72 h.
Assay [3] deals with Dual specificity mitogen-activated protein kinase kinase 1 (Homo sapiens) (UniProt Q02750). Kind of assay: Inhibition of MEK1 at 10 uM.
Assay [4] deals with Dual specificity mitogen-activated protein kinase kinase 2 (Homo sapiens) (UniProt P36507). Kind of assay: Inhibition of MEK2 at 10 uM.
Assay [5] addresses Hepatocyte growth factor receptor (Homo sapiens) (UniProt P08581). Description: Inhibition of MET at 10 uM.
In assay [6] the target is Mitogen-activated protein kinase 14 (Homo sapiens) (UniProt Q16539). Description: Inhibition of p38alpha at 10 uM.
The target of assay [7] is Mitogen-activated protein kinase 11 (Homo sapiens) (UniProt Q15759). Kind of assay: Inhibition of p38beta at 10 uM.
The target of assay [8] is Platelet-derived growth factor receptor alpha (Homo sapiens) (UniProt P16234). Kind of assay: Inhibition of PDGFRA at 10 uM.
Assay [9] concerns the target Platelet-derived growth factor receptor beta (Homo sapiens) (UniProt P09619). Kind of assay: Inhibition of PDGFRB at 10 uM.
Assay [10] has as its target Phosphatidylinositol 4,5-bisphosphate 3-kinase catalytic subunit gamma isoform (Homo sapiens) (UniProt P48736). Kind of assay: Inhibition of PIK3CG at 10 uM.
Assay [11] concerns the target Serine/threonine-protein kinase pim-1 (Homo sapiens) (UniProt P11309). Kind of assay: Inhibition of PIM1 at 10 uM.
Assay [12] addresses Serine/threonine-protein kinase pim-2 (Homo sapiens) (UniProt Q9P1W9). Kind of assay: Inhibition of PIM2 at 10 uM.
In assay [13] the target is Serine/threonine-protein kinase pim-3 (Homo sapiens) (UniProt Q86V86). Kind of assay: Inhibition of PIM3 at 10 uM.
The target of assay [14] is Serine/threonine-protein kinase PLK4 (Homo sapiens) (UniProt O00444). Description: Inhibition of PLK4 at 10 uM.
The target of assay [15] is RAF proto-oncogene serine/threonine-protein kinase (Homo sapiens) (UniProt P04049). Kind of assay: Inhibition of RAF1 at 10 uM.
In assay [16] the target is Proto-oncogene tyrosine-protein kinase Src (Homo sapiens) (UniProt P12931). Kind of assay: Inhibition of SRC at 10 uM.
Assay [17] deals with SRSF protein kinase 3 (Homo sapiens) (UniProt Q9UPE1). Kind of assay: Inhibition of SRPK3 at 10 uM.
For assay [18], the target named is TGF-beta receptor type-1 (Homo sapiens) (UniProt P36897). Kind of assay: Inhibition of TGFBR1 at 10 uM.
Assay [19] concerns the target Angiopoietin-1 receptor (Homo sapiens) (UniProt Q02763). Description: Inhibition of TIE2 at 10 uM.
The target in assay [20] is Non-receptor tyrosine-protein kinase TYK2 (Homo sapiens) (UniProt P29597). Description: Inhibition of TYK2 at 10 uM.
For assay [21], the target named is Tyrosine-protein kinase ABL1 (Homo sapiens) (UniProt P00519). Kind of assay: Inhibition of ABL1 at 10 uM.
For assay [22], the target named is Atypical kinase COQ8A, mitochondrial (Homo sapiens) (UniProt Q8NI60). Kind of assay: Inhibition of ADCK3 at 10 uM.
Assay [23] deals with ALK tyrosine kinase receptor (Homo sapiens) (UniProt Q9UM73). Kind of assay: Inhibition of ALK at 10 uM.
For assay [24], the target named is Serine/threonine-protein kinase B-raf (Homo sapiens) (UniProt P15056). Description: Inhibition of BRAF at 10 uM.
In assay [25] the target is Tyrosine-protein kinase BTK (Homo sapiens) (UniProt Q06187). Kind of assay: Inhibition of BTK at 10 uM.
Assay [26] has as its target Cyclin-dependent kinase 2 (Homo sapiens) (UniProt P24941). Description: Inhibition of CDK2 at 10 uM.
In assay [27] the target is Cyclin-dependent kinase 3 (Homo sapiens) (UniProt Q00526). Kind of assay: Inhibition of CDK3 at 10 uM.
For assay [28], the target named is Cyclin-dependent kinase 7 (Homo sapiens) (UniProt P50613). Kind of assay: Inhibition of CDK7 at 10 uM.
The target in assay [29] is Cyclin-dependent kinase 9 (Homo sapiens) (UniProt P50750). Kind of assay: Inhibition of CDK9 at 10 uM.
The target of assay [30] is Serine/threonine-protein kinase Chk1 (Homo sapiens) (UniProt O14757). Kind of assay: Inhibition of CHEK1 at 10 uM.
For assay [31], the target named is Macrophage colony-stimulating factor 1 receptor (Homo sapiens) (UniProt P07333). Description: Inhibition of CSF1R at 10 uM.
Assay [32] has as its target Casein kinase I isoform gamma-2 (Homo sapiens) (UniProt P78368). Kind of assay: Inhibition of CSNK1G2 at 10 uM.
The target of assay [33] is Dual specificity tyrosine-phosphorylation-regulated kinase 1B (Homo sapiens) (UniProt Q9Y463). Description: Inhibition of DYRK1B at 10 uM.
The target of assay [34] is Epidermal growth factor receptor (Homo sapiens) (UniProt P00533). Kind of assay: Inhibition of EGFR at 10 uM.
Assay [35] addresses Receptor tyrosine-protein kinase erbB-2 (Homo sapiens) (UniProt P04626). Description: Inhibition of ERBB2 at 10 uM.
Assay [36] deals with Receptor tyrosine-protein kinase erbB-4 (Homo sapiens) (UniProt Q15303). Description: Inhibition of ERBB4 at 10 uM.
In assay [37] the target is Mitogen-activated protein kinase 3 (Homo sapiens) (UniProt P27361). Kind of assay: Inhibition of ERK1 at 10 uM.
The target in assay [38] is Fibroblast growth factor receptor 2 (Homo sapiens) (UniProt P21802). Kind of assay: Inhibition of FGFR2 at 10 uM.
The target of assay [39] is Fibroblast growth factor receptor 3 (Homo sapiens) (UniProt P22607). Description: Inhibition of FGFR3 at 10 uM.
The target in assay [40] is Insulin-like growth factor 1 receptor (Homo sapiens) (UniProt P08069). Description: Inhibition of IGF1R at 10 uM.
For assay [41], the target named is Insulin receptor (Homo sapiens) (UniProt P06213). Description: Inhibition of INSR at 10 uM.
For assay [42], the target named is Tyrosine-protein kinase JAK2 (Homo sapiens) (UniProt O60674). Kind of assay: Inhibition of JAK2 at 10 uM.
Assay [43] deals with Mast/stem cell growth factor receptor Kit (Homo sapiens) (UniProt P10721). Kind of assay: Inhibition of KIT at 10 uM.
Assay [44] deals with Receptor-type tyrosine-protein kinase FLT3 (Homo sapiens) (UniProt P36888). Description: Inhibition of FLT3 at 10 uM.
The target in assay [45] is Glycogen synthase kinase-3 beta (Homo sapiens) (UniProt P49841). Description: Inhibition of GSK3-beta at 10 uM.
The target of assay [46] is cAMP-dependent protein kinase catalytic subunit alpha (Homo sapiens) (UniProt P17612). Kind of assay: Inhibition of PKACalpha at 10 uM.

Sequence of Cyclin-dependent kinase 7 (Homo sapiens) (P50613 whole entry): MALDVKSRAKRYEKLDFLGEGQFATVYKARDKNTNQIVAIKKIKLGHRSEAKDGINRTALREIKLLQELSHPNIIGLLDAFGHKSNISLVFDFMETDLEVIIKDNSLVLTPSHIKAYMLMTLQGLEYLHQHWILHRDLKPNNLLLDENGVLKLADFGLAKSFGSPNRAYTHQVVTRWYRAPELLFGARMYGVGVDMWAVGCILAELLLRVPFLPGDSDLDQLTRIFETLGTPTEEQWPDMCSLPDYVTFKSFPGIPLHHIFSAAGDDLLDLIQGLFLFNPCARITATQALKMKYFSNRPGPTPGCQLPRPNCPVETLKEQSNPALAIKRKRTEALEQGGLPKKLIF
Sequence of Mitogen-activated protein kinase 11 (Homo sapiens) (Q15759 whole entry): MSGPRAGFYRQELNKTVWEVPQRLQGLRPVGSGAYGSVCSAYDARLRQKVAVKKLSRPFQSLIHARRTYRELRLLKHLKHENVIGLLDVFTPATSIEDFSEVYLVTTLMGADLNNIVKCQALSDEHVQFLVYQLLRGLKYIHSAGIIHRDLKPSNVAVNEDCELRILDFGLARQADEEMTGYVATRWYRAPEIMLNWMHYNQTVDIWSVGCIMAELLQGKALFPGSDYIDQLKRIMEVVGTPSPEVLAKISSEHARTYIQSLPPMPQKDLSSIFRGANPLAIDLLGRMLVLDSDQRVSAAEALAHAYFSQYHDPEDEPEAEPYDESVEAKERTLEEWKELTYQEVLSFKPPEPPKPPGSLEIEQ
Sequence of Glycogen synthase kinase-3 beta (Homo sapiens) (P49841 whole entry, looked up): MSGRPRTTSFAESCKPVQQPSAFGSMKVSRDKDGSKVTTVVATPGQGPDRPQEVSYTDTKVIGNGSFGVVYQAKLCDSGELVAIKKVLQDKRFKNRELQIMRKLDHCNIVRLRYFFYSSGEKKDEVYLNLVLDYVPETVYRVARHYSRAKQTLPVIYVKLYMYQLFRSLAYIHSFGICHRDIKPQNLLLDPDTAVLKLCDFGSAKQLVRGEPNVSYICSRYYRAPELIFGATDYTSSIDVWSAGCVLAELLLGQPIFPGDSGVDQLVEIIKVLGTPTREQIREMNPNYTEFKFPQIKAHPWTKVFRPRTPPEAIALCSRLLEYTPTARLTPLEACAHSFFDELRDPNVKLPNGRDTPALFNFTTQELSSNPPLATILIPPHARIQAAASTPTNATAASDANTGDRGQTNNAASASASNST
Sequence of Insulin receptor (Homo sapiens) (P06213 28-758 limits assumed): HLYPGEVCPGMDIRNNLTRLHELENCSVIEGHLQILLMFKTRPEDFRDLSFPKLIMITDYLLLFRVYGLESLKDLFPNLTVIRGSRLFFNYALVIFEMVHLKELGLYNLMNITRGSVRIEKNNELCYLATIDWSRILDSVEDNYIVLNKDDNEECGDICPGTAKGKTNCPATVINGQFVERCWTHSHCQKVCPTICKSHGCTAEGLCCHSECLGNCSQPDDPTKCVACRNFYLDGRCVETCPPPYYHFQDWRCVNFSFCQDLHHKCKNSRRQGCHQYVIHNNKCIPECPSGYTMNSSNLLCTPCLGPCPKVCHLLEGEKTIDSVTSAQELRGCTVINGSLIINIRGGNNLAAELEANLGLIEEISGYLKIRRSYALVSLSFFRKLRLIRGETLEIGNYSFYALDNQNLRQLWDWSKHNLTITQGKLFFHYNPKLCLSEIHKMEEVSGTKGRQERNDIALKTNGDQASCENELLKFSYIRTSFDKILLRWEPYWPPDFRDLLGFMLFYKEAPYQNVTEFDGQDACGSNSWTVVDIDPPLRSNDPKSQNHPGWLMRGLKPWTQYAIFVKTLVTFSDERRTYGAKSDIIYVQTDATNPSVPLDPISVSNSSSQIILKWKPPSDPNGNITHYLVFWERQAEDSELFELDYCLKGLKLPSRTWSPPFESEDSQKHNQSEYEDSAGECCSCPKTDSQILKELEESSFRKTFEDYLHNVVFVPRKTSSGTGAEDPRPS
Sequence of Insulin receptor (Homo sapiens) (P06213 763-1382 limits assumed): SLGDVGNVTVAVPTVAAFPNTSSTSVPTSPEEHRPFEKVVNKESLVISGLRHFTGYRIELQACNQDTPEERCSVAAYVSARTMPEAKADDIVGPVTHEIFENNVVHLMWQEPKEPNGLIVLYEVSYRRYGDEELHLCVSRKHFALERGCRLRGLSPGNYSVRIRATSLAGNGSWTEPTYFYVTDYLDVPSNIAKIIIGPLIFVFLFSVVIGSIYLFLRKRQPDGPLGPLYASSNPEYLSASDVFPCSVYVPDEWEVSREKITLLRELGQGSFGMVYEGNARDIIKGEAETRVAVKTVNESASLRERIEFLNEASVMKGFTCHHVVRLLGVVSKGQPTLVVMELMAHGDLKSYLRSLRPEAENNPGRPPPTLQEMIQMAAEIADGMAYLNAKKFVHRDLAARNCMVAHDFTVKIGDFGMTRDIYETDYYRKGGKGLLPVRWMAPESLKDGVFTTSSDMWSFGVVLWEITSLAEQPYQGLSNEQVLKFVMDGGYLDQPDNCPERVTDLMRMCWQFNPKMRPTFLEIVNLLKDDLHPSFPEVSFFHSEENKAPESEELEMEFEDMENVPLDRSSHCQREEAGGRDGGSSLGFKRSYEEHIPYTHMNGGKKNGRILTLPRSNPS
Sequence of Cyclin-dependent kinase 9 (Homo sapiens) (P50750 whole entry): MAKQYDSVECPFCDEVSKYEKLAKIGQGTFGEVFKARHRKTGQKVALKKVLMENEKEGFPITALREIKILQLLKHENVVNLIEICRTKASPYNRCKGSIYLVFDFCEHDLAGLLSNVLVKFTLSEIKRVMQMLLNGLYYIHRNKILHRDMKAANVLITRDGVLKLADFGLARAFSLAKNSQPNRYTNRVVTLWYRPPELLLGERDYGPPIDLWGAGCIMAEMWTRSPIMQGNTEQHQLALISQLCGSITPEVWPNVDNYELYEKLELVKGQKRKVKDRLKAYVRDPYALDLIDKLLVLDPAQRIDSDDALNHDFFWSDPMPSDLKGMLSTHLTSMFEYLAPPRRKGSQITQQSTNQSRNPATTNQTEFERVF
Sequence of Tyrosine-protein kinase ABL1 (Homo sapiens) (P00519 whole entry): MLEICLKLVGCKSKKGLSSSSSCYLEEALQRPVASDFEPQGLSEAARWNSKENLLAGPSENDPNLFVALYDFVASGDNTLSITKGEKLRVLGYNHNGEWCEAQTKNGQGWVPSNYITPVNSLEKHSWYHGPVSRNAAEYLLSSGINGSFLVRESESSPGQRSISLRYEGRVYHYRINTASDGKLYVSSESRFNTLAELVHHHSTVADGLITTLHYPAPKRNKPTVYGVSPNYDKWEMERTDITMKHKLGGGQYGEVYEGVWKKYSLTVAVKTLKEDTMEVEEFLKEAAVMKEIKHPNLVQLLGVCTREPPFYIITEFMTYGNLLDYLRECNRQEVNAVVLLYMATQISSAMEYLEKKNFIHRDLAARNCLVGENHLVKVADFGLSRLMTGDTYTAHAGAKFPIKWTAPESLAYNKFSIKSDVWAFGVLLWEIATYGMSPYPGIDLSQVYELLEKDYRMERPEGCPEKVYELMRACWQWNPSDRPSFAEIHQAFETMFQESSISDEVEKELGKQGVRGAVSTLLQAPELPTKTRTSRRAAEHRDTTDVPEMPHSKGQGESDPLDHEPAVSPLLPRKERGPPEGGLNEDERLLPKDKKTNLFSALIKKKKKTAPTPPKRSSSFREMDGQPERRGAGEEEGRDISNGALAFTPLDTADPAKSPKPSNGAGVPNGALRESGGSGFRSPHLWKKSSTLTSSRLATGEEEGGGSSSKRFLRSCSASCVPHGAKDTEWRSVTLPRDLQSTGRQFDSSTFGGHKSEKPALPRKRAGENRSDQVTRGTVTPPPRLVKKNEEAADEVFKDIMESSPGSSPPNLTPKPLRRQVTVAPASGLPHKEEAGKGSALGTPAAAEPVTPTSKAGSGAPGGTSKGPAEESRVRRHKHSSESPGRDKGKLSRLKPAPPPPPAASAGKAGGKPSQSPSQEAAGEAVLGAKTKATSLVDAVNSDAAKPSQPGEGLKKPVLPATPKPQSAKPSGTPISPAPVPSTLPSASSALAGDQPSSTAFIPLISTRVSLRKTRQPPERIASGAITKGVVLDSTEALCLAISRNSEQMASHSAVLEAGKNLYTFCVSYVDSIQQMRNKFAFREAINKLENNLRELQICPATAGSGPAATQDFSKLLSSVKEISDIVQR
Sequence of SRSF protein kinase 3 (Homo sapiens) (Q9UPE1 whole entry): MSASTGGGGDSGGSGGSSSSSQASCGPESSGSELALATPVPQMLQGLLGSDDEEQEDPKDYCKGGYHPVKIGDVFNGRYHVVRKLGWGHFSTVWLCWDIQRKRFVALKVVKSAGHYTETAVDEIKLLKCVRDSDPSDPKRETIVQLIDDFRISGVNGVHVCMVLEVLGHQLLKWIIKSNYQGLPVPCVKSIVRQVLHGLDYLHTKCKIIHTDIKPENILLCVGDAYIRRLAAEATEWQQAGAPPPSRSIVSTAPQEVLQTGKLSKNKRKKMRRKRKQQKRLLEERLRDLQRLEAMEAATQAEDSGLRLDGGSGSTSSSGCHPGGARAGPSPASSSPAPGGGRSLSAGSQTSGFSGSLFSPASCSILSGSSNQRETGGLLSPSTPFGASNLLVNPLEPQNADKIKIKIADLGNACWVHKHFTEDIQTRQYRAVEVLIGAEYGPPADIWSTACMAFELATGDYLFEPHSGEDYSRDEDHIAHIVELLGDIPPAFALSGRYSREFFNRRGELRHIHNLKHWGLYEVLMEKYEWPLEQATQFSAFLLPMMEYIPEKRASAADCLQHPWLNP
Sequence of Dual specificity mitogen-activated protein kinase kinase 2 (Homo sapiens) (P36507 whole entry): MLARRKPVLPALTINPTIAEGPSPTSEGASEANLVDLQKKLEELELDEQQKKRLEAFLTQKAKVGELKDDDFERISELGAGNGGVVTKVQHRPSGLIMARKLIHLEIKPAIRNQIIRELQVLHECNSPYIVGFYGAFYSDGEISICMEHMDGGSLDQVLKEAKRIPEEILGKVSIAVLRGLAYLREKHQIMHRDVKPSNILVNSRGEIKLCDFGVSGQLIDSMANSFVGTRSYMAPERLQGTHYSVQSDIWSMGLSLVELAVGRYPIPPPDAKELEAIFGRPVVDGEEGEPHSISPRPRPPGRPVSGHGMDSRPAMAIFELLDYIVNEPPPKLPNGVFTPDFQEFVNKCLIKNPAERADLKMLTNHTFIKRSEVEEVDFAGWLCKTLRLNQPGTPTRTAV
Description for HCT-116: Antiproliferative activity against human HCT116 cells after 72 hrs by MTT assay
Description for K562: Antiproliferative activity against human K562 cells after 72 hrs by MTT assay

What is called inhibition is the percentage by which the read-out fell short of the control. In general, IC50 refers to the concentration that gives 50% inhibition. Lower therefore signals higher potency. On to `O=C1Nc2ccccc2/C1=C1\C(=O)N(CCc2ccc([N+](=O)[O-])cc2)c2ccccc21`, for which, in [1], the inhibition result was “inactive”. Besides, the half-inhibitory concentration (IC50) was > 30 µM in the assay with HL-60; 13.3 µM in the assay with Huh-7; 7.5 µM in assay [2]; > 30 µM in the assay on K562; > 30 µM with HCT-116.
`CC(=O)Nc1ccc(CCN2C(=O)/C(=C3/C(=O)Nc4ccccc43)c3ccccc32)cc1`: the inhibition result in assay [1] is “inactive”. The IC50 is > 30 µM with HL-60; 13.3 µM with Huh-7; 19.5 µM in assay [2]; > 30 µM in the assay on K562; > 30 µM in the assay on HCT-116.
Turning to `O=C1Nc2ccccc2/C1=C1\C(=O)N(Cc2ccccc2)c2ccccc21`, the inhibition entry in assay [1] was “inactive”.
As to `O=C1Nc2ccccc2/C1=C1\C(=O)N(CCc2ccc(O)cc2)c2ccccc21`, the inhibition result in assay [1] is “inactive”. In addition, the IC50 in the assay with HL-60 is > 30 µM; in the assay on Huh-7, 19.9 µM; in [2] it was > 30 µM; in the assay on K562, > 30 µM; in the assay with HCT-116, > 30 µM.
For `O=Nc1c(-c2c(O)[nH]c3ccccc23)[nH]c2ccccc12` [INDIRUBIN-3-MONOXIME], the inhibition in [1] stood at 70%. In addition, the IC50 with HL-60 is 15.7 µM; in assay [2], 18.2 µM; with K562 it was > 30 µM; with HCT-116, 12 µM.
As for `O=C1Nc2ccccc2/C1=C1\C(=O)Nc2ccccc21` [ISOINDIGO], the inhibition entry in assay [1] was “inactive”. Moreover, the IC50 in the assay on HL-60 was 16.6 µM; in the assay with Huh-7 it was 28.9 µM; in assay [2], 16.3 µM; in the assay on K562, 6.7 µM; with HCT-116 it was > 30 µM.
`O=C1Nc2ccccc2/C1=C1\C(=O)N(CCc2ccccc2)c2ccccc21`: the inhibition result in assay [1] is “inactive”. Besides, the half-inhibitory concentration (IC50) in the assay with HL-60 was 11.9 µM; in the assay on Huh-7 it was 12 µM; in assay [2] it was 6.8 µM; with K562 it was 7.3 µM; in the assay on HCT-116, 12.2 µM.
Turning to `COc1ccc(CCN2C(=O)/C(=C3/C(=O)Nc4ccccc43)c3ccccc32)cc1`, the inhibition entry in [1] is “inactive”. In addition, the IC50 in the assay with HL-60 was 12 µM; with Huh-7 it was 7.5 µM; in assay [2] it was 5.4 µM; with K562, 1.4 µM; in the assay with HCT-116, 11.6 µM.
In [1], `O=C1Nc2cc(Br)ccc2/C1=C1/Nc2ccccc2/C1=N\O` gave an inhibition of 70%.
Turning to `O=C1Nc2ccccc2/C1=C1\C(=O)N(c2ccccc2)c2ccccc21`, the inhibition result in [1] is “inactive”.
`Cc1ccc(CCN2C(=O)/C(=C3/C(=O)Nc4ccccc43)c3ccccc32)cc1`: the inhibition entry in assay [1] is “inactive”. Moreover, the concentration for half-maximal inhibition (IC50) is > 30 µM with HL-60; 19 µM in the assay with Huh-7; > 30 µM in [2]; > 30 µM with K562; > 30 µM in the assay on HCT-116.
As to `O=C1Nc2ccccc2C1C1C(=O)Nc2ccccc21` (configuration not stated), the inhibition result in assay [1] was “inactive”.
Turning to `CN1C(=O)/C(=C2/C(=O)N(C)c3ccccc32)c2ccccc21`, the inhibition result in assay [1] is “inactive”.
Turning to `O=C1Nc2ccccc2/C1=C1\C(=O)N(CCCc2ccccc2)c2ccccc21`, the inhibition in assay [3] came to 0%; in [4] it was 9%; in assay [5], 0%; in assay [6], 4%; in assay [7], 32%; in [8], 0%. Further, the inhibition in [9] amounted to 49%; in [10], 19%; in [11] it was 0%; in assay [12], 23%; in assay [13], 0%; in assay [14] it was 39%. Besides, the inhibition in assay [15] turned out to be 9%; in assay [16] it was 15%; in [17], 7%; in assay [18], 0%; in assay [19], 0%; in [20], 0%. In addition, the inhibition in assay [21] amounted to 46%; in assay [22], 45%; in assay [23] it was 0%; in assay [24], 0%; in assay [25] it was 13%; in [26], 0%. For the same compound, the inhibition was 0% in assay [27]; 28% in assay [28]; 0% in [29]; 35% in assay [30]; 11% in [31]; 0% in assay [32]. For the same compound, the inhibition in assay [33] was determined as 0%; in assay [34], 0%; in [35] it was 3%; in [36], 16%; in [37] it was 18%; in [38], 42%. The inhibition in assay [39] worked out at 32%; in [40] it was 20%; in assay [41], 0%; in assay [42], 25%; in assay [43] it was 49%; in [44], 0%. Also, the inhibition came to 5% in [45] and 12% in assay [46]. Further, the inhibition result in [1] is “inactive”.

The record behind these values is ChEMBL document CHEMBL1152632, “Synthesis and evaluation of functionalized isoindigos as antiproliferative agents” (Bioorg Med Chem, 2009).
